Data from ChEMBL document CHEMBL3044572, “Discovery of 2-(4-cyano-3-trifluoromethylphenyl amino)-4-(4-quinazolinyloxy)-6-piperazinyl(piperidinyl)-s-triazines as potential antibacterial agents” (2012).
Values after ≈ are worked out from the molar mass of the structure shown. Active and inactive are the calls of the source. The calls are words filed in the database; no cut-off is given here.

Columns and labels:
Candida albicans [1] = test: Antimicrobial activity against Candida albicans MTCC 183 by agar streak dilution method; type: functional
Aspergillus clavatus [2] = test: Antimicrobial activity against Aspergillus clavatus MTCC 1323 by paper disk diffusion method; type: functional
Aspergillus niger [3] = test: Antimicrobial activity against Aspergillus niger MTCC 282 by paper-disk diffusion method; type: functional
Aspergillus fumigatus [4] = test: Antimicrobial activity against Aspergillus fumigatus MTCC 343 by paper-disk diffusion method; type: functional
Pseudomonas aeruginosa [5] = test: Antimicrobial activity against Pseudomonas aeruginosa MTCC 741 at 100 ug/ml by paper disk diffusion method; type: functional, organism-based
Shigella flexneri [6] = test: Antimicrobial activity against Shigella flexneri MTCC 1457 by paper disk diffusion method; type: functional
Proteus vulgaris [7] = test: Antimicrobial activity against Proteus vulgaris MTCC 1771 by paper disk diffusion method; type: functional
Salmonella typhi [8] = test: Antimicrobial activity against Salmonella enterica subsp. enterica serovar Typhi MTCC 733 by paper disk diffusion method; type: functional
Klebsiella pneumoniae [9] = test: Antimicrobial activity against Klebsiella pneumoniae MTCC 109 by paper disk diffusion method; type: functional
Pseudomonas aeruginosa [10] = test: Antimicrobial activity against Pseudomonas aeruginosa MTCC 741 by paper disk diffusion method; type: functional
Bacillus cereus [11] = test: Antimicrobial activity against Bacillus cereus MTCC 619 by paper disk diffusion method; type: functional
Escherichia coli [12] = test: Antimicrobial activity against Escherichia coli MTCC 739 by paper disk diffusion method; type: functional
Staphylococcus aureus [13] = test: Antimicrobial activity against Staphylococcus aureus MTCC 96 by paper-disk diffusion method; type: functional
Aspergillus clavatus [14] = test: Antimicrobial activity against Aspergillus clavatus MTCC 1323 by agar streak dilution method; type: functional
Aspergillus fumigatus [15] = test: Antimicrobial activity against Aspergillus fumigatus MTCC 343 by agar streak dilution method; type: functional
Aspergillus niger [16] = test: Antimicrobial activity against Aspergillus niger MTCC 282 by agar streak dilution method; type: functional
Proteus vulgaris [17] = test: Antimicrobial activity against Proteus vulgaris MTCC 1771 by agar streak dilution method; type: functional
Shigella flexneri [18] = test: Antimicrobial activity against Shigella flexneri MTCC 1457 by agar streak dilution method; type: functional
Klebsiella pneumoniae [19] = test: Antimicrobial activity against Klebsiella pneumoniae MTCC 109 by agar streak dilution method; type: functional
Salmonella typhi [20] = test: Antimicrobial activity against Salmonella enterica subsp. enterica serovar Typhi MTCC 733 by agar streak dilution method; type: functional
Pseudomonas aeruginosa [21] = test: Antimicrobial activity against Pseudomonas aeruginosa MTCC 741 by agar streak dilution method; type: functional
Staphylococcus aureus [22] = test: Antimicrobial activity against Staphylococcus aureus MTCC 96 by agar streak dilution method; type: functional
Bacillus cereus [23] = test: Antimicrobial activity against Bacillus cereus MTCC 619 by agar streak dilution method; type: functional
[24] = tested on: Mycobacterium tuberculosis; test: Antimicrobial activity against Mycobacterium tuberculosis H37Rv at 100 ug/ml by BACTEC MGIT method; type: functional, organism-based
Escherichia coli [25] = test: Antimicrobial activity against Escherichia coli MTCC 739 by agar streak dilution method; type: functional
[26] = tested on: Mycobacterium tuberculosis; test: Antimicrobial activity against Mycobacterium tuberculosis H37Rv by Lowenstein and Jensen method; type: functional; conditions: for MIC: Mycobacterium tuberculosis, H37Rv
[27] = tested on: Mycobacterium tuberculosis; test: Antimicrobial activity against Mycobacterium tuberculosis H37Rv by BACTEC MGIT method; type: functional; conditions: Mycobacterium tuberculosis, H37Rv
Candida albicans [28] = test: Antimicrobial activity against Candida albicans MTCC 183 by paper-disk diffusion method; type: functional

Row | SMILES | MIC (Candida albicans [1]) [µg/mL] | inhibition zone (IZ) (Aspergillus clavatus [2]) [mm] | inhibition zone (IZ) (Aspergillus niger [3]) [mm] | inhibition zone (IZ) (Aspergillus fumigatus [4]) [mm] | inhibition zone (IZ) (Pseudomonas aeruginosa [5]) | inhibition zone (IZ) (Shigella flexneri [6]) [mm] | inhibition zone (IZ) (Proteus vulgaris [7]) [mm] | inhibition zone (IZ) (Salmonella typhi [8]) [mm] | inhibition zone (IZ) (Klebsiella pneumoniae [9]) [mm] | inhibition zone (IZ) (Pseudomonas aeruginosa [10]) [mm] | inhibition zone (IZ) (Bacillus cereus [11]) [mm] | inhibition zone (IZ) (Escherichia coli [12]) [mm] | inhibition zone (IZ) (Staphylococcus aureus [13]) [mm] | MIC (Aspergillus clavatus [14]) [µg/mL] | MIC (Aspergillus fumigatus [15]) [µg/mL] | MIC (Aspergillus niger [16]) [µg/mL] | MIC (Proteus vulgaris [17]) [µg/mL] | MIC (Shigella flexneri [18]) [µg/mL] | MIC (Klebsiella pneumoniae [19]) [µg/mL] | MIC (Salmonella typhi [20]) [µg/mL] | other results
1 | COc1ccc(N2CCN(c3nc(Nc4ccc(C#N)c(C(F)(F)F)c4)nc(Oc4ncnc5ccccc45)n3)CC2)cc1 | 12.5 (≈ 20.8 µM) | 25 | 25 | 25 | inactive | 23 | 26 | 25 | 25 | 27 | 25 | 28 | 27 | 6.25 (≈ 10.4 µM) | 6.25 (≈ 10.4 µM) | 6.25 (≈ 10.4 µM) | 6.25 (≈ 10.4 µM) | 50 (≈ 83.4 µM) | 12.5 (≈ 20.8 µM) | 25 (≈ 41.7 µM) | MIC (Pseudomonas aeruginosa [21]): 12.5 µg/mL (≈ 20.8 µM); MIC (Staphylococcus aureus [22]): 6.25 µg/mL (≈ 10.4 µM); MIC (Bacillus cereus [23]): 6.25 µg/mL (≈ 10.4 µM); inhibition [24]: inactive; MIC (Escherichia coli [25]): 6.25 µg/mL (≈ 10.4 µM); inhibition (percent inhibition) [26]: 99%; MIC [26]: 25 µg/mL (≈ 41.7 µM); MIC [27]: > 6.25 µg/mL; inhibition zone (IZ) (Candida albicans [28]): 25 mm
2 | CC(=O)N1CCN(c2nc(Nc3ccc(C#N)c(C(F)(F)F)c3)nc(Oc3ncnc4ccccc34)n2)CC1 | 50 (≈ 93.4 µM) | 24 | 24 | 24 | inactive | 22 | 25 | 24 | 25 | 27 | 26 | 28 | 27 | 12.5 (≈ 23.3 µM) | 25 (≈ 46.7 µM) | 25 (≈ 46.7 µM) | 12.5 (≈ 23.3 µM) | 100 (≈ 187 µM) | 12.5 (≈ 23.3 µM) | 25 (≈ 46.7 µM) | MIC (Pseudomonas aeruginosa [21]): 12.5 µg/mL (≈ 23.3 µM); MIC (Staphylococcus aureus [22]): 12.5 µg/mL (≈ 23.3 µM); MIC (Bacillus cereus [23]): 6.25 µg/mL (≈ 11.7 µM); inhibition [24]: inactive; MIC (Escherichia coli [25]): 6.25 µg/mL (≈ 11.7 µM); inhibition (percent inhibition) [26]: 96%; MIC [26]: 12.5 µg/mL (≈ 23.3 µM); MIC [27]: > 6.25 µg/mL; inhibition zone (IZ) (Candida albicans [28]): 24 mm
3 | N#Cc1ccc(Nc2nc(Oc3ncnc4ccccc34)nc(N3CCN(c4ccccc4F)CC3)n2)cc1C(F)(F)F | 12.5 (≈ 21.3 µM) | 24 | 26 | 22 | inactive | 25 | 23 | 26 | 24 | 25 | 26 | 24 | 27 | 25 (≈ 42.6 µM) | 25 (≈ 42.6 µM) | 3.12 (≈ 5.31 µM) | 25 (≈ 42.6 µM) | 25 (≈ 42.6 µM) | 25 (≈ 42.6 µM) | 12.5 (≈ 21.3 µM) | MIC (Pseudomonas aeruginosa [21]): 25 µg/mL (≈ 42.6 µM); MIC (Staphylococcus aureus [22]): 6.25 µg/mL (≈ 10.6 µM); MIC (Bacillus cereus [23]): 6.25 µg/mL (≈ 10.6 µM); inhibition [24]: inactive; MIC (Escherichia coli [25]): 50 µg/mL (≈ 85.1 µM); inhibition (percent inhibition) [26]: 98%; MIC [26]: 12.5 µg/mL (≈ 21.3 µM); MIC [27]: > 6.25 µg/mL; inhibition zone (IZ) (Candida albicans [28]): 26 mm
